From ChEMBL document CHEMBL4811216, “Chemotherapy for human schistosomiasis: how far have we come? What's new? Where do we go from here?” (RSC Med Chem, 2020)
Values belong to the compound of their own block, whether it stands above or below them.

Assays:
[1] = system: Schistosoma mansoni; test: microbe, parasite or virus in culture; details: Liberian, 72 h
Description: Antischistosomal activity against Schistosoma mansoni Liberian NTS incubated for 72 hrs by microscopic method

[2] = system: Schistosoma mansoni; test: Antischistosomal activity against Schistosoma mansoni infected in NMRI mouse assessed as worm burden reduction at 400 mg/kg, po administered […] for 4 consecutive days and measured after 14 days relative to control; format: functional; parameters: scale not given: the % may be the effect or the level left; details: time 14 day
[3] = system: Schistosoma mansoni; test: Antischistosomal activity against Schistosoma mansoni Puerto-Rican incubated for 72 hrs by inverted microscopic method; format: functional, organism-based
[4] = molecular target: T1, Histone deacetylase 8 (Homo sapiens, UniProt Q9BY41); test: Inhibition of human HDAC8 using Fluor de Lys as substrate incubated for 90 mins by fluorescence method
T1 sequence (Q9BY41 whole entry): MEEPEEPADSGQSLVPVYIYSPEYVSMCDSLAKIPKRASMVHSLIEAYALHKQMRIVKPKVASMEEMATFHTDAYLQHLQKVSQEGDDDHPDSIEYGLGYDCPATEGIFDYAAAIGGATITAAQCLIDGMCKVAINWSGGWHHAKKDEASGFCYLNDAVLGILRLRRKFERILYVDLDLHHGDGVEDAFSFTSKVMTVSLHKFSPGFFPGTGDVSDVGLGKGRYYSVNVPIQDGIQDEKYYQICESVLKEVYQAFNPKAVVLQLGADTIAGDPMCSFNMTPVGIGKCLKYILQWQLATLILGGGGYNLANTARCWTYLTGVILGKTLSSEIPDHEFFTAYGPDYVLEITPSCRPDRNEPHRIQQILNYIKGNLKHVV

[5] = molecular target: T2, Histone deacetylase 8 (Schistosoma mansoni, UniProt A5H660); test: Inhibition of Schistosoma mansoni HDAC8 expressed in Escherichia coli using Fluor de Lys as substrate incubated for 90 mins by fluorescence method
T2 sequence (A5H660 whole entry): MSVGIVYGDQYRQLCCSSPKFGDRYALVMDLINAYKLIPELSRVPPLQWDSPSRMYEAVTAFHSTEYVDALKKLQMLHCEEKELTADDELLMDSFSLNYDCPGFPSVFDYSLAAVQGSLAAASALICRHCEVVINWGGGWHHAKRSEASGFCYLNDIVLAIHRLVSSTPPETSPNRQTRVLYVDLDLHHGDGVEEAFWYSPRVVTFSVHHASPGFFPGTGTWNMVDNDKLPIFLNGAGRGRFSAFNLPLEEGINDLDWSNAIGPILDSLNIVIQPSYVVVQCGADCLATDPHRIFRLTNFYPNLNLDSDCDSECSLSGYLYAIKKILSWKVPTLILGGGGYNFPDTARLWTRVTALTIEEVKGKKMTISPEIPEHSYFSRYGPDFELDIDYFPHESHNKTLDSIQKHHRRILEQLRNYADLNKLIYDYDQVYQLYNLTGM

[6] = molecular target: Histone deacetylase 1 (Homo sapiens, UniProt Q13547); test: Inhibition of human HDAC1 (1 to 482 reidue) expressed in sf9 cells using ZMAL(Cbz-(Ac)Lys-AMC as substrate preincubated for 90 mins followed by trypsin addition and measured after 20 mins by fluorimetric method
[7] = molecular target: T3, Protein deacetylase HDAC6 (Homo sapiens, UniProt Q9UBN7); test: Inhibition of human HDAC6 using ZMAL(Cbz-(Ac)Lys-AMC as substrate preincubated for 90 mins followed by trypsin addition and measured after 20 mins by fluorimetric method
T3 sequence (Q9UBN7 whole entry): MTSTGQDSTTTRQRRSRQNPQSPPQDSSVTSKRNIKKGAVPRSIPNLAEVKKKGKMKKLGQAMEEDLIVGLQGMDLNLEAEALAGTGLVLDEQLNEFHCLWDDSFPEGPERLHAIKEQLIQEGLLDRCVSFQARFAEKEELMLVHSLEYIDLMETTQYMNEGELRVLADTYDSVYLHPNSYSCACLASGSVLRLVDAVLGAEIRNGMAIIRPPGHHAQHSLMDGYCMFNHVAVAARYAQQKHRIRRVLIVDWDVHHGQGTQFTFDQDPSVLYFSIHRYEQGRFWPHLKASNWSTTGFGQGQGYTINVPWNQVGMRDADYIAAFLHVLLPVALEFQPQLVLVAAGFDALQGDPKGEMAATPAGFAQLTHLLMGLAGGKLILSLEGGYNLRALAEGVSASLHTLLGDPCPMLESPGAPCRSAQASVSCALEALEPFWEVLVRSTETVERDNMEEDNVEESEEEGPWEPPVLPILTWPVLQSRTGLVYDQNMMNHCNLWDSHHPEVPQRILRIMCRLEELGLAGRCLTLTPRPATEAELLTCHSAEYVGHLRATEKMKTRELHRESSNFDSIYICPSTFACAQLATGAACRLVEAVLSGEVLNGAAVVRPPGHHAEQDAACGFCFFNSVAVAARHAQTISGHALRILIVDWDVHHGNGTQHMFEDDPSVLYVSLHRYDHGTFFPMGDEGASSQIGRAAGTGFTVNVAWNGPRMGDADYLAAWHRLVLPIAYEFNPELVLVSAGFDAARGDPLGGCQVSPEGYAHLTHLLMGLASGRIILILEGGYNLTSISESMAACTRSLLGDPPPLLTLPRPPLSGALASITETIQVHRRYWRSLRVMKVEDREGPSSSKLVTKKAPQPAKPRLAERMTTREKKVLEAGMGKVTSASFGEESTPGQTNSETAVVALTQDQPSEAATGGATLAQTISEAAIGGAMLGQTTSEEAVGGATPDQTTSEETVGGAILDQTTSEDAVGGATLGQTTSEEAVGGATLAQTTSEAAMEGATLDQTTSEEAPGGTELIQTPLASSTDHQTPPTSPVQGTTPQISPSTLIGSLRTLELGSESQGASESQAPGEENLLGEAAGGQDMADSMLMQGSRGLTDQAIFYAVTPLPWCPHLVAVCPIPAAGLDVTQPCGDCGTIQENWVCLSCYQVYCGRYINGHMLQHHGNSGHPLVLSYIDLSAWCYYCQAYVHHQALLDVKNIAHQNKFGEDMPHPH

[8] = system: Schistosoma mansoni; test: Antischistosomal activity against adult Schistosoma mansoni LE assessed as reduction in motor activity at 50 uM measured after 24 hrs by inverted microscopy relative to control; format: functional; parameters: scale not given: the % may be the effect or the level left
[9] = system: Schistosoma mansoni; test: Antischistosomal activity against Schistosoma mansoni infected in NMRI mouse assessed as worm burden reduction at 100 mg/kg, po administered as single dose relative to control; format: functional; parameters: scale not given: the % may be the effect or the level left
[10] = system: Schistosoma mansoni; test: Antischistosomal activity against Schistosoma mansoni Liberian infected in NMRI mouse assessed as worm burden reduction at 200 mg/kg, po measured after 14 days relative to control; format: functional; parameters: scale not given: the % may be the effect or the level left; details: time 14 day
[11] = system: Schistosoma mansoni; test: Schistosomicidal-activity against Schistosoma mansoni schistosomula incubated for 48 hrs by Alamar Blue assay; format: functional, organism-based
[12] = system: Schistosoma mansoni; test: Schistosomicidal-activity against Schistosoma mansoni schistosomula at 20 uM incubated for 48 hrs by Alamar Blue assay relative to control; format: functional
[13] = molecular target: T4, Cathepsin B1 isotype 1 (Schistosoma mansoni) (UniProt Q8MNY2); test: Inhibition of Schistosoma mansoni cathepsin B1 using Z-Phe-Arg-aminomethylcoumarin as substrate at 100 uM by fluorescence method relative to control
T4 sequence (whole entry): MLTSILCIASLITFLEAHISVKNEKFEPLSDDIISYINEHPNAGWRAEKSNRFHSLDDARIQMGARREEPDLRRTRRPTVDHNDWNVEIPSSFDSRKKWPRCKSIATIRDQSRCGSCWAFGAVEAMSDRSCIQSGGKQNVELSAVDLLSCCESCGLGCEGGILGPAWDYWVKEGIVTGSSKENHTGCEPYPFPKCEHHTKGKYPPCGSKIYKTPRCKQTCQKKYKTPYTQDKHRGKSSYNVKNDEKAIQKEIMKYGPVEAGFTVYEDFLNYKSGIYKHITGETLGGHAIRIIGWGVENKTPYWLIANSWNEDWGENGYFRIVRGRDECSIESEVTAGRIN

Chain of Histone deacetylase 1 (Q13547 whole entry): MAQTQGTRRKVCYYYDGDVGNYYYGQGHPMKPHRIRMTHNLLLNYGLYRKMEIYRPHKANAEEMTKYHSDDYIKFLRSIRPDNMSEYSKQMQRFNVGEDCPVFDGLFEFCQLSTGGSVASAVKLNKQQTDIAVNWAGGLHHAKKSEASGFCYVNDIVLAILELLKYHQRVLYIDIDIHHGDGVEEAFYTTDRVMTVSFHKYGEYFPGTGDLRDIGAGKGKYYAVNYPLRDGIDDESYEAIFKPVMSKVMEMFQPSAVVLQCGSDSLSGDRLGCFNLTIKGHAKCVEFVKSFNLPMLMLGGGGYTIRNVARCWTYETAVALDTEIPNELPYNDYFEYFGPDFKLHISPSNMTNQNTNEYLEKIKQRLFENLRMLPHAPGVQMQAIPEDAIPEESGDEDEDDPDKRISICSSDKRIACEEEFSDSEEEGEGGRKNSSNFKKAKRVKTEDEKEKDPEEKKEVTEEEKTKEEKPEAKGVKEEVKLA

IC50 [1]: 2.7 µM
IC50 [3]: 0.8 µM
Compound: COc1ccc(Nc2nc(NCc3ccccc3)c3ccccc3n2)cc1
Activity [2]: 0%

Compound: CCCCCCC(=O)N(O)C1CC(=O)C(c2ccc(Cl)cc2)C1=O (stereo unspecified)
IC50 [4]: 7.69 µM
IC50 [5]: 5.5 µM
IC50 [6]: 3.98 µM
IC50 [7]: 2.65 µM

Compound: O[C@@H]1OC[C@@H](Cc2ccc3c(c2)OCO3)[C@@H]1Cc1ccc2c(c1)OCO2
Activity [8]: >75%

IC50 [1]: 1.8 µM
IC50 [3]: 3.4 µM
Compound: O=C(CCl)NCCOc1ccc(Cl)cc1Cl
Activity [2]: 1.8%

IC50 [1]: 3.4 µM
IC50 [3]: 6.3 µM
Compound: Clc1cc(Br)ccc1-c1ccc(CNCC2CCNCC2)o1
Activity [2]: 18.7%

Compound: CC(C)NCC1CCc2cc(CO)c([N+](=O)[O-])cc2N1 (stereo unspecified) [OXAMNIQUINE]
Activity [9]: 99.2%

Compound: O[C@@H](c1cc(-c2ccc(C(F)(F)F)cc2)nc(C(F)(F)F)c1)[C@@H]1CCCCN1
Activity [10]: >82%

Compound: O=C(/C=C/c1ccccc1Oc1c(Cl)cccc1Cl)NO
IC50 [4]: 0.47 µM
EC50 [11]: 6.5 µM
IC50 [5]: 0.44 µM
IC50 [6]: 20.2 µM
IC50 [7]: 8.2 µM
Activity [12]: 89%

Compound: OC(c1cc(-c2ccc(C(F)(F)F)cc2)nc(C(F)(F)F)c1)C1CCCCN1 (stereo unspecified) [ENPIROLINE]
Activity [10]: >82%

IC50 [3]: 0.8 µM
Compound: Brc1ccc(Nc2nc3ccccc3nc2Nc2ccc(Br)cc2)cc1
Activity [2]: 40.8%

Compound: CCCC(=O)OCCNC(=O)c1ccc(CCl)c([N+](=O)[O-])c1
inhibition [13]: < 27%
